Experimental data reported in patent US6831091B2, “Salt forms of 3-(4-bromo-2,6-difluoro-benzyloxy)-5-[3-(4-pyrrolidin-1-yl-butyl)-ureido]-isothiazole-4-carboxylic acid amide and method of production” (priority 2000, dated 2004).

How the values were obtained:
[1] = Stability in air / deliquescence; format: physicochemical; details: can be used without deliquescence
[2] = Hygroscopicity (water uptake at stated relative humidity); format: physicochemical; details: for hygroscopicity relative to the mesylate salt: compared with mesylate salt; for water absorbed: 90% relative humidity
[3] = Crystallinity (freedom from amorphous material); format: physicochemical; details: i.e., substantially free of amorphous material
[4] = Conversion of crystal form in refluxing ethanol; format: physicochemical
[5] = Tendency of concentrated aqueous solution to form viscous mixtures upon standing; format: physicochemical
[6] = Sedative effect on dosing; format: in vivo; details: low to moderate dosing
[7] = format: physicochemical; details: for kinetic solubility relative to free base or hydrochloride: compared with free base or hydrochloride form

| Compound | stability in air [1] | Hygroscopicity ([2]; 87% relative RH) [%] | hygroscopicity relative to the mesylate salt [2] | crystallinity [3] | hygroscopic stability [2] | also measured |
| --- | --- | --- | --- | --- | --- | --- |
| 3-(4-bromo-2,6-difluoro-benzyloxy)-5-[3-(4-pyrrolidin-1-yl-butyl)-ureido]-isothiazole-4-carboxylic acid amide hemi-citrate [Example 4] | more stable in air | 0.43 | less hygroscopic than the mesylate salt |  |  |  |
| 3-(4-bromo-2,6-difluoro-benzyloxy)-5-[3-(4-pyrrolidin-1-yl-butyl)-ureido]-isothiazole-4-carboxylic acid amide hemi-succinate |  |  |  | high crystallinity | substantially hygroscopically stable |  |
| 3-(4-bromo-2,6-difluoro-benzyloxy)-5-[3-(4-pyrrolidin-1-yl-butyl)-ureido]-isothiazole-4-carboxylic acid amide hemi-succinate [Example 8] |  |  |  |  |  | Hygroscopicity ([2]; 30° C. and 90% RH, listed as Hemi-succinate crystal form A): 0.6 % w/w; Hygroscopicity ([2]; 90% relative RH): 0.6%; water absorbed ([2]; listed as Form A hemi-succinate): 0.6% |
| 3-(4-bromo-2,6-difluoro-benzyloxy)-5-[3-(4-pyrrolidin-1-yl-butyl)-ureido]-isothiazole-4-carboxylic acid amide hemi-succinate [Example 9] |  |  |  |  |  | time for conversion of hemi-succinate form B into form A [4]: less than 24 hours; Hygroscopicity ([2]; 30° C. and 90% RH, listed as Hemi-succinate crystal form B): 1.5 % w/w; Hygroscopicity ([2]; 90% relative RH): 1.5%; water absorbed ([2]; listed as Form B hemi-succinate): 1.5% |
| Cl.NC(=O)c1c(OCc2c(F)cc(Br)cc2F)nsc1NC(=O)NCCCCN1CCCC1 [Example 2, 3-(4-bromo-2,6-difluoro-benzyloxy)-5-[3-(4-pyrrolidin-1-yl-butyl)-ureido]-isothiazole-4-carboxylic acid amide hydrochloride] |  |  |  | high crystallinity | substantially hygroscopically stable | tendency for concentrated aqueous solution to form viscous mixtures upon standing [5]: low tendency; Hygroscopicity ([2]; 90% relative humidity at ambient temperature): 1 % (by weight) |
| Br.NC(=O)c1c(OCc2c(F)cc(Br)cc2F)nsc1NC(=O)NCCCCN1CCCC1 [Example 3, 3-(4-bromo-2,6-difluoro-benzyloxy)-5-[3-(4-pyrrolidin-1-yl-butyl)-ureido]-isothiazole-4-carboxylic acid amide hydrobromide] |  | 0.1 |  | high crystallinity | substantially hygroscopically stable | tendency for concentrated aqueous solution to form viscous mixtures upon standing [5]: low tendency; sedative effect [6]: mild sedative effect |
| CC(=O)O.NC(=O)c1c(OCc2c(F)cc(Br)cc2F)nsc1NC(=O)NCCCCN1CCCC1 [Example 5, 3-(4-bromo-2,6-difluoro-benzyloxy)-5-[3-(4-pyrrolidin-1-yl-butyl)-ureido]-isothiazole-4-carboxylic acid amide acetate] |  |  |  | high crystallinity |  |  |
| Cc1ccc(S(=O)(=O)O)cc1.NC(=O)c1c(OCc2c(F)cc(Br)cc2F)nsc1NC(=O)NCCCCN1CCCC1 [Example 6, 3-(4-bromo-2,6-difluoro-benzyloxy)-5-[3-(4-pyrrolidin-1-yl-butyl)-ureido]-isothiazole-4-carboxylic acid amide p-tosylate] | more stable in air | −0.9 | less hygroscopic than the mesylate salt |  |  | kinetic solubility relative to free base or hydrochloride [7]: greater kinetic solubility than the free base or hydrochloride form |
| NC(=O)c1c(OCc2c(F)cc(Br)cc2F)nsc1NC(=O)NCCCCN1CCCC1.O=C(O)C(O)C(O)C(=O)O [Example 7, 3-(4-bromo-2,6-difluoro-benzyloxy)-5-[3-(4-pyrrolidin-1-yl-butyl)-ureido]-isothiazole-4-carboxylic acid amide L-tartrate] | more stable in air |  | less hygroscopic than the mesylate salt |  |  | kinetic solubility relative to free base or hydrochloride [7]: greater kinetic solubility than the free base or hydrochloride form; Hygroscopicity ([2]; 100% RH): 0.3% |
| CS(=O)(=O)O.NC(=O)c1c(OCc2c(F)cc(Br)cc2F)nsc1NC(=O)NCCCCN1CCCC1 [Example 10, 3-(4-bromo-2,6-difluoro-benzyloxy)-5-[3-(4-pyrrolidin-1-yl-butyl)-ureido]-isothiazole-4-carboxylic acid amide mesylate] |  |  |  | high crystallinity |  | kinetic aqueous solubility [7]: rapid kinetic aqueous solubility |
